According to patent US11767313B2, “Compounds as nuclear transport modulators and uses thereof” (XWPHARMA LTD., priority 2018, dated 2023):

Experiments:
[1] = Pharmacokinetic profile in plasma; format: in vivo; settings: P.O., mice
Procedure: Blood was collected from mice (n=3, or 5) to contribute to the total of 10 time points (pre-dose, 5 min, 15 min, 30 min, 1 hour, 2 hours, 4 hours, 8 hours, 12 hours and 24 hours). At the designated time points, animals were anaesthetized under isoflurane, and approximately 110 μL of blood per time point was collected via retro-orbital puncture into pre-cooled K2EDTA tubes. Blood samples were put on wet ice and centrifuged (2000 g, 5 min at 4° C.) to obtain plasma within 30 minutes of sample collection. All samples were stored frozen at approximately −80° C. until analysis. Prior to analysis, samples were mixed with internal standard in acetonitrile, vortexed, centrifuged, and supernatant was injected for analysis. Concentration of compounds in plasma was determined using LC-MS-MS instrumentation (API 4000, Triple Quadrupole LC/MS/MS Mass Spectrometer). AUC values were calculated using Phoenix Win Nonlin 6.3 software package, PO-Noncompartmental model 200 (extravascular input).

C8-B4 = experiment: Cytotoxicity, cell proliferation assay, C8-B4; format: cell-based; settings: Table 8
Procedure: (§1) CellTiter-Glo® Luminescent Cell Viability assay (with Promega CellTiter 96® Luminescent CellTiter-Glo® kit) was used to study the proliferation inhibition by test compounds. Compounds were resuspended in DMSO to make a 25 mM stock suspension. Cells of cancer cell lines or normal tissues were seeded in 96-well plates at 1,500 to 5,000 cells/well overnight. Compounds were 2- or 3-fold diluted serially to obtain 10 concentrations. Then, the drugs were added to the cell wells by Bravo (Agilent) and incubated for 72 hours. The cells were lysed by adding CellTiter-Glo® Reagent (per manufacturer's instructions) and subsequently, the luminescence was read using EnVision® (PerkinElmer).
(§2) The percent of growth was calculated as follows. DMSO-treated cells were employed as vehicle control (High control, HC) and culture medium alone was employed as background (Low control, EC). % growth=100×(Lum sample−Lum EC)/(Lum HC−Lum EC). The ICso was calculated by concentration-response curve fitting using Graphpad Prism.
The cytotoxicity of test compounds in brain (HCN2), colon cancer (HCT116) and normal colon cell (C8-B4) lines was determined using the cell proliferation assay as described in Example 19.

3T3 = experiment: Cytotoxicity, cell proliferation assay, 3T3; format: cell-based; settings: Mus musculus, NIH3T3; Table 9
Procedure: as §1, §2
The cytotoxicity of test compounds was also determined in glioblastoma (U87MG)), brain (HCN2) and 3T3 cell lines was determined using the cell proliferation assay as described in Example 19.

A-172 = experiment: CellTiter-Glo cell viability assay, A-172; format: cell-based; settings: Homo sapiens, Table 6
Procedure: as §1, §2
The inhibition activity of test compounds was determined in A-172, U87MG and 3T3-L1 cell lines.
A CellTiter-Glo® luminescent cell viability assay was performed s described in Example 1.

XPO1 = XPO1 (Homo sapiens, UniProt O14980); experiment: Compound washout assay in REV-GFP cells; settings: for XPO1 inhibition post washout: 400 nM (EC90); for effect on nuclear retention of REV: at EC50 (120 nM)
Procedure: In order to evaluate the duration of XPO1 inhibition by test compounds on XPO1 protein after washout, washout assay was performed using REV-GFP cells. The test compounds and positive control were added to the cell well, and the plate was incubated the at 37° C. and 5% CO2 for 1 h. The drug-containing media were removed, the cells were washed, and the fresh media were added. The cells were imagined at the specified time points 0, 4, 24, 48, 72, and 96 hours to evaluate the inhibition of REV nuclear export. […] 4A. […] 4B. […] 4C.

CRM1 = molecular target: T1, CRM1 (Homo sapiens, UniProt O14980); experiment: PD effects by IHC in U87MG-luc orthotopic model, CRM1; format: in vivo, mice; settings: orally three times a week for 2 weeks; vs vehicle control
T1 construct: from tissue; host or cells: U87MG-luc orthotopic xenograft tumours in mouse brain
Procedure: (§3) Based on the bioluminescent signal of tumor, mice were randomly assigned to respective groups using a computer-generated randomization procedure, which included vehicle and compound III-treated groups, respectively, with 5 animals per group. Compound III (20 mg/kg) was given orally 3 times a week (on Day 1, 3, 5) for 2 weeks. Animals for IHC study were euthanized at 6 hours after the last dose and perfused with normal saline followed by fixation with 4% paraformaldehyde. Entire brains containing tumors were collected and kept in fixative for 24 hours before proceeding for paraffin block.

Ki67 = experiment: PD effects by IHC in U87MG-luc orthotopic model, Ki67; format: in vivo, mice; settings: orally three times a week for 2 weeks; vs vehicle control
Procedure: as §3

XPO1, sequence (O14980 whole entry): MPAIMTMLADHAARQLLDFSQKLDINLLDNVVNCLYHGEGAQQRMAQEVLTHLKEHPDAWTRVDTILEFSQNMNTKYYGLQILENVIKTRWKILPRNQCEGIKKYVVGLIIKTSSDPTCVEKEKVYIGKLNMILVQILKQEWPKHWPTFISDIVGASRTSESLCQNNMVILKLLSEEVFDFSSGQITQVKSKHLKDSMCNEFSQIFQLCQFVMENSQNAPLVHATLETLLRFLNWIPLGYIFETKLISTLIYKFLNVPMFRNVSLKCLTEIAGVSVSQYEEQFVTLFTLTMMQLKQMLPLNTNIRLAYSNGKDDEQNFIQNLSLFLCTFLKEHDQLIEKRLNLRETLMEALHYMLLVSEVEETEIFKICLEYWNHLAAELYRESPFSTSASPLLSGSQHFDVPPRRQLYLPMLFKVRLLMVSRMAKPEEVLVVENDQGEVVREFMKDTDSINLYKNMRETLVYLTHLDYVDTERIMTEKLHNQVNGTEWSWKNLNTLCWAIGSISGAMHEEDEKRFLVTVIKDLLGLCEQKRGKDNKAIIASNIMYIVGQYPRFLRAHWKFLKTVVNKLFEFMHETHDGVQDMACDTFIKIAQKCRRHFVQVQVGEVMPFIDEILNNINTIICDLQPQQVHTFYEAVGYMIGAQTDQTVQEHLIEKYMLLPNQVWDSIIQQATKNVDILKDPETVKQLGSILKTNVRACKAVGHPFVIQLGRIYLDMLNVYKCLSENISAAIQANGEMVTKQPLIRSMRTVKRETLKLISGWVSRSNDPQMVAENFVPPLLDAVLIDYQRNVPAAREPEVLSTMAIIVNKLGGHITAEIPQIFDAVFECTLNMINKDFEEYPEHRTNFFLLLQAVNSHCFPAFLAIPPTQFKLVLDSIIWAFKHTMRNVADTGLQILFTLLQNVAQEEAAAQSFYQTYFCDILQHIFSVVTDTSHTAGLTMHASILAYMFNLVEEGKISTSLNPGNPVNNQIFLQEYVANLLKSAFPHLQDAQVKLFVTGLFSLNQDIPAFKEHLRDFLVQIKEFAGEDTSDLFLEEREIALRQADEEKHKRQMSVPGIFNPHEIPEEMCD
T1 sequence (O14980 whole entry): as above

Structure (SMILES)	AUG0-inf [1]	Cmax ([1]; mouse, po)	Tmax ([1]; mouse, po)	half-life ([1]; mouse, po)	MRT inf ([1]; mouse, po, read-out: MRT0-inf)	MRT last ([1]; mouse, po, read-out: MRT0-last)	IC50 (C8-B4; C8-B4)	C8-B4 Max % inh (C8-B4)	IC50 (3T3)	IC50 (A-172)	XPO1 inhibition post washout (XPO1; 4 hours post washout)	XPO1 inhibition post washout (XPO1; by 24 hours post washout)	effect on nuclear retention of REV (XPO1; 4 hours post washout)	effect on nuclear retention of REV (XPO1; 24 hours post washout)	effect on nuclear retention of REV (XPO1; following 1-hour treatment)	toxicity / cell number compared to the control (XPO1; washout assay)	expression of CRM1 in tumors (IHC) (CRM1)	expression of Ki67 in tumors (IHC) (Ki67)
O=C(/C=C\n1cnc(-c2cc(C(F)(F)F)cc(S(F)(F)(F)(F)F)c2)n1)NNc1cnccn1 [Compound I, (Z)-3-(3-(3-(pentafluorosulfanyl)-5-(trifluoromethyl)phenyl)-1H-1,2,4-triazol-1-yl)-N′-(pyrazin-2-yl)acrylohydrazide]	10430 ng·h/mL	2550 ng/mL	0.75 h	4.72 h	5.55 h	4.51 h	4.3 µM	91%	> 50 µM	0.407 µM								
CC(C)(C)C(=O)NNC(=O)/C=C\n1cnc(-c2cc(C(F)(F)F)cc(S(F)(F)(F)(F)F)c2)n1 [Compound III, (Z)-3-(3-(3-(Pentafluorosulfanyl)-5-(trifluoromethyl)phenyl)-1H-1,2,4-triazol-1-yl)-N′-pivaloylacrylohydrazide]											sustained XPO1 inhibition	gradually diminished	20%	completely lost	about 40%	no decrease in the cell number was observed	significantly decreased	significantly decreased
